Source: US11185522B2, “Cilastatin for use in the treatment of sepsis” (FUNDACIÓN PARA LA INVESTIGACIÓN BIOMÉDICA DEL HOSPITAL …, priority 2016, dated 2021)
Several values for one entry are separate records, joined by “and”; a condition that tells them apart may be missing. Identical values can stand only once.

Tests used:
FasL = conditions: septic rats; Western blot
Protocol: (§1) Sepsis was developed by cecal ligation puncture model (CLP) as described in several papers (Li G et al, Clin Exp Pharmacol Physiol. 2014; 41(7):459-68, Seija M et al, Shock. 2012; 38(4):403-10). Animals were anesthetized with ketamine (Ketolar 50 mg/ml) 90 mg/kg intraperitoneal (ip) and diazepam (Valium 10 mg/2 mL) 5 mg/kg ip. Under sterile conditions a 3-cm midline laparotomy was performed to allow exposure of the cecum, and a 4-0 silk ligature was placed 0.75 cm from the cecal tip. It was punctured once with a 14-gauge needle. A second ligature was placed 1.5 cm proximal to the first one and distal to the ileocecal valve to avoid intestinal obstruction. Three punctures were made in the cecum between the two ligatures with a 16-gauge needle. The cecum was gently squeezed until a 1-mm column of fecal material was exteriorized. The bowel was then returned to the abdomen and the incision was closed in layers. A sham operation (laparotomy and cecal exposure without any other manipulation) was performed as control. […]
(§2) Western blotting was performed as described previously (Humanes B et al, Kidney International. 2012; 82(6):652-663). […] All signals were visualized with an Alliance 4.7 (Uvitec, Cambridge, UK) and analyzed by densitometric scanning (ImageJ; http://rsbweb.nih.gov/ij/index.html). […]

cleaved caspase-8 = conditions: septic rats; Western blot
Protocol: as §1, §2

ICAM-1 = conditions: septic rats; immunohistochemistry
Protocol: (§3) Sepsis was developed by cecal ligation puncture model (CLP) as described in several papers (Li G et al, Clin Exp Pharmacol Physiol. 2014; 41(7):459-68, Seija M et al, Shock. 2012; 38(4):403-10). Animals were anesthetized with ketamine (Ketolar 50 mg/ml) 90 mg/kg intraperitoneal (ip) and diazepam (Valium 10 mg/2 mL) 5 mg/kg ip. Under sterile conditions a 3-cm midline laparotomy was performed to allow exposure of the cecum, and a 4-0 silk ligature was placed 0.75 cm from the cecal tip. It was punctured once with a 14-gauge needle. A second ligature was placed 1.5 cm proximal to the first one and distal to the ileocecal valve to avoid intestinal obstruction. Three punctures were made in the cecum between the two ligatures with a 16-gauge needle. The cecum was gently squeezed until a 1-mm column of fecal material was exteriorized. The bowel was then returned to the abdomen and the incision was closed in layers. A sham operation (laparotomy and cecal exposure without any other manipulation) was performed as control. At the end of the operation, all rats were resuscitated with normal saline (50 ml/kg body weight) subcutaneously in a single dose and analgesic treatment with buprenorphine (buprex 0.3 mg/ml) 0.1 mg/kg every 12 hours immediately after surgery and until the day of killing.
(§4) Immunohistochemistry was carried out as described previously (Humanes B et al, Kidney International. 2012; 82(6):652-663). The primary antibodies used were polyclonal goat anti-rat TIM-1/KIM-1/HAVCR (1:20; R&D systems); anti-cleaved caspase-3 (Asp175) (1:50; Cell Signaling Technology, Inc., Beverly, Mass.) mouse monoclonal anti-4-HNE (1:75; Oxis International Inc., Foster City, Calif.); polyclonal rabbit anti-Cu/Zn SOD (1:1000; Assay Designs, Stressgen, Ann Arbor, Mich., USA); monoclonal mouse anti-CD68 (monocyte/macrophage, 1:125, Abd Serotec, Oxford, UK); polyclonal goat anti-VCAM-1 (1:100; Santa Cruz Biotechology, Inc., Beverly, Mass., USA); polyclonal rabbit anti-TGFβ1 antibody (1:100; Santa Cruz Biotechnology); monoclonal mouse anti-ICAM-1 (1:100; Santa Cruz). […] The surface area labeled by antibodies was evaluated by quantitative image analysis as previously described (Lazaro A. et al. Antiox Redox Signal. 2005; 7:1285-1293). In brief, the percentage of the stained area was calculated as the ratio of suitable binary thresholded image and the total field area. For each sample, the mean staining area was obtained by analysis of the entire sample.
(§5) In the treatment groups, the rats were treated with cilastatin 150 mg/kg ip immediately and at 24 h after induction of sepsis or the sham-operation. Cilastatin was substituted by vehicle (0.5 mL/100 g) in the non-treatment groups. […] All animals were then placed in the metabolic cages for 24-h urine collection.
(§6) Forty-eight (48) hours after the sepsis-induction/sham-operation, all rats were anesthetized with ketamine (10 mg/kg) and diazepam (4 mg/kg) and killed. Blood samples were collected by insertion of a cannula into the abdominal aorta, and serum was isolated by centrifugation in ACUETTE® Z Serum Sep Clot Activator tubes (Greiner bio-one), at 2000 rpm for 15 h at 4° C., and then stored at −80° C. until use. The kidneys were perfused with cold saline and quickly removed. Kidney samples were snap-frozen in liquid nitrogen and kept at −80° C. or fixed in 4% paraformaldehyde (24 h) and paraffin-embedded for the different studies.

VCAM-1 = conditions: septic rats; immunohistochemistry
Protocol: as §3, §4, §5, §6

CD68 = conditions: cilastatin-treated septic rats compared to the sepsis group
Protocol: as §3, §4, §5, §6

TGFβ = conditions: septic animals; immunohistochemistry
Protocol: as §3, §4, §5, §6

4-HNE = conditions: septic rats
Protocol: as §3, §4, §5, §6

Cu/Zn SOD = conditions: septic rats; immunohistochemistry and Western blotting
Protocol: as §3
(§7) Immunohistochemistry was carried out as described previously (Humanes B et al, Kidney International. 2012; 82(6):652-663). […] The surface area labeled by antibodies was evaluated by quantitative image analysis as previously described (Lazaro A. et al. Antiox Redox Signal. 2005; 7:1285-1293). In brief, the percentage of the stained area was calculated as the ratio of suitable binary thresholded image and the total field area. […]
as §2

KIM-1 = conditions: sepsis+cil vs control (SHAM) levels; immunohistochemistry and Western blot; 48 h
Protocol: as §3, §7, §2

cleaved caspase-3 = conditions: septic rats; immunohistochemistry and Western blot of the renal cortex
Protocol: as §3, §7, §2

CLP-induced sepsis rats [1] = tested on: CLP-induced sepsis rats
Protocol: as §3

[2] = septic rats
Protocol: as §3, §5
as §6, with “Kidney samples were snap-frozen in liquid nitrogen and kept at −80° C. or fixed in 4% paraformaldehyde (24 h) and paraffin-embedded for the different studies.” left out

[3] = tested on: kidney tubular cell apoptosis; conditions: kidneys of septic rats
Protocol: as §3, §5
as §6, with “Kidney samples were snap-frozen in liquid nitrogen and kept at −80° C. or fixed in 4% paraformaldehyde (24 h) and paraffin-embedded for the different studies.” left out

CLP-induced sepsis rats [4] = conditions: day 2 after CLP surgery
Protocol: as §3, §5
as §6, with “Kidney samples were snap-frozen in liquid nitrogen and kept at −80° C. or fixed in 4% paraformaldehyde (24 h) and paraffin-embedded for the different studies.” left out

CLP-induced sepsis rats [5] = tested on: CLP-induced sepsis rats; remark: listed apart in the source
Protocol: as §3
Serum creatinine, blood urea nitrogen levels (BUN), proteins and other parameters were measured using the Dimension RxL autoanalyzer (Dade-Behring, Siemens, Eschborn, Germany). The glomerular filtration rate was calculated using the creatinine clearance rate.
The animals were randomly allocated into four groups (n=10 in each group): • i. sham-operated group, • ii. CLP group, • iii. sham-operated group+cilastatin, and • iv. CLP group+cilastatin.
as §5, §6

[6] = sepsis+cil group, 48 hours after induction of sepsis, cilastatin 150 mg/kg ip immediately and at 24 h, mean±s.e.m.

Question: Which “Renal cortex FasL” value (FasL) does the source give for `CC1(C)C[C@@H]1C(=O)N/C(=C\CCCCSC[C@H](N)C(=O)O)C(=O)O` [cilastatin, (Z)-7-[(2R)-2-Amino-3-hydroxy-3-oxopropyl]sulfanyl-2-{[(1S)-2,2-dimethylcyclopropanecarbonyl]amino}hept-2-enoic acid] here?
Answer: attenuated

Question: And the “Renal cortex cleaved caspase-8” value (cleaved caspase-8)?
Answer: attenuated

Question: What about the “Sepsis-induced increase of ICAM-1 expression” value (ICAM-1) of the same compound?
Answer: significantly reduced

Question: What about the “Sepsis-induced increase of VCAM-1 expression” value (VCAM-1) of the same compound?
Answer: significantly reduced

Question: And the “CD68 positive cells in renal samples” value (CD68)?
Answer: fewer

Question: And the “TGFβ1 levels in renal tissue” value (TGFβ)?
Answer: significantly decreased

Question: And the “Sepsis-enhanced 4-HNE staining in the kidneys” value (4-HNE)?
Answer: completely prevented

Question: And the “Cu/Zn SOD expression in renal cortex” value (Cu/Zn SOD)?
Answer: able to restore its expression

Question: And the KIM-1 protein level (KIM-1)?
Answer: partially restored

Question: And the “Elevated caspase-3 levels” value (cleaved caspase-3)?
Answer: significantly lowered

Question: What about the Decrease in mortality (CLP-induced sepsis rats [1]; cilastatin vs CLP plus vehicle, 48 h after CLP) of the same compound?
Answer: 33% and 30%

Question: And the “Mortality (%)” value (CLP-induced sepsis rats [1]; sepsis+cil group, monitored for 48 h after CLP, cilastatin 150 mg/kg immediately and at 24 h, 6 rats per group, sepsis vehicle group 83%)?
Answer: 50%

Question: And the “Antioxidant capacity in urine” value [2]?
Answer: improved

Question: And the “Number of TUNEL-positive cells” value [3]?
Answer: significantly decreased

Question: And the “Semi-quantitative renal injury score” value (CLP-induced sepsis rats [4])?
Answer: reduced the renal injury score

Question: And the Protein excretion (CLP-induced sepsis rats [5]; CLP group with cilastatin vs CLP group, 48 h)?
Answer: significantly reduced

Question: And the Proteinuria (CLP-induced sepsis rats [5]; sepsis+cil group (fourth value, group not labelled), 48 hours, cilastatin 150 mg/kg ip, mean±s.e.m.)?
Answer: 1889±347

Question: What about the Blood urea nitrogen (CLP-induced sepsis rats [5]; [6]) of the same compound?
Answer: 75±7

Question: And the Serum creatinine (CLP-induced sepsis rats [5]; [6])?
Answer: 0.38±0.02

Question: And the Glomerular filtration rate (CLP-induced sepsis rats [5]; sepsis+cil group, 48 hours, calculated using the creatinine clearance rate, cilastatin 150 mg/kg ip, mean±s.e.m.)?
Answer: 0.45±0.07

Question: And the “Sepsis-induced dysfunctions: serum BUN and creatinine increase, glomerular filtration rate decrease” value (CLP-induced sepsis rats [5]; septic animals, cilastatin 150 mg/kg ip, 48 h)?
Answer: totally prevented
